Data: patent US9763901B2 (priority 2015, dated 2017)

Assays:
[1] = Cytotoxicity in HCV replicon cells (CytoTox-1); assay type: cell-based; conditions: human, Huh7 hepatoma cells containing a subgenomic HCV replicon, In vitro HCV replicon assay, post infection, read-out: CC50 (concentration decreasing cell viability by 50%)
Procedure: (§1) Stable HCV replicons of different genotypes may be used for anti-HCV evaluation. We use the subgenomic HCV replicons of genotype 1a (H77 strain), 1b (Conl strain), and 2a (JFH-1 strain), which are Huh7 human hepatoma cell lines that contains an HCV replicon.
Briefly, the replicon cells are plated at 5,000 cells/well into 96-well plates that are dedicated for the analysis of cell numbers (cytotoxicity) or antiviral activity. On the following day, samples are diluted with assay media and added to the appropriate wells. Cells are processed 72 hours later when the cells are still sub-confluent. For the luciferase endpoint assay, HCV replicon levels are assessed as replicon-derived L uc activity. The concentration of drug that reduces cell viability is assessed by the fluorometric CytoTox-1 cell proliferation assay (Promega), (expressed as cell numbers). For the qRT-PCR/TaqMan assay, total RNA is extracted from the replicon cells using RNeasy 96 kit (Qiagen) according to the manufacturer's protocol. Real-time RTPCR/TaqMan assays are performed to measure copy numbers of the replicon RNA and cellular ribosomal RNA. […]

[2] = test system: cell culture-derived HCV (HCVcc); assay: microbe, parasite or virus in culture; assay type: cell-based, hepatitis C virus
Procedure: (§2) Huh7.5 cells are grown in Dulbecco's modified essential media (DMEM), 10% fetal bovine serum (FBS), 1% penicillin-streptomycin (pen-strep), 1% Non-essential amino acids (NEAA) in a 5% CO2 incubator at 37° C. Huh7.5 cells are seeded at 1×10^4 cells per well into 96-well plates according to Southern Research Institute standard format. Test articles are serially diluted with DMEM plus 5% FBS. The diluted compound in the amount of 50 μl is mixed with equal volume of cell culture-derived HCV (HCVcc), then applied to appropriate wells in the plate. Human interferon alpha-2b (rIFNα-2b) and/or Sofosbuvir are included as a positive control. After 72 hr incubation at 37° C., the cells are lysed for measurement of luciferase activity using Renilla Luciferase Assay System (Promega) according to manufacturer's instruction. The number of cells in each well is determined by CytoTox-1 reagent (Promega). Test articles are tested at 6 serial dilutions in triplicate to derive, if applicable, EC50 and EC90 (concentration inhibiting HCVcc infectivity by 50% and 90%, respectively), CC50 (concentration decreasing cell viability by 50%) and SI (selectivity index: CC50/EC50) values (Table 1).

[3] = Cytotoxicity in HCVcc assay (CytoTox-1); assay type: cell-based; conditions: human, Huh7.5 cells infected with cell culture-derived HCV (HCVcc), In vitro HCV cc assay, read-out: CC50 (concentration decreasing cell viability by 50%)
Procedure: as §2

HCV GT1B Replicon = assay: HCV replicon assay (antiviral, luciferase endpoint); assay type: cell-based, hepatitis C virus
Excerpt: as §1
The HCV replicon antiviral evaluation assay examines the effects of compounds at six serial dilutions. Human interferon alpha-2b (rIFNα-2b) and/or Sofosbuvir are included in each run as a positive control compound.
Briefly, the replicon cells are plated at 5,000 cells/well into 96-well plates that are dedicated for the analysis of cell numbers (cytotoxicity) or antiviral activity. On the following day, samples are diluted with assay media and added to the appropriate wells. Cells are processed 72 hours later when the cells are still sub-confluent. For the luciferase endpoint assay, HCV replicon levels are assessed as replicon-derived L uc activity. The concentration of drug that reduces cell viability is assessed by the fluorometric CytoTox-1 cell proliferation assay (Promega), (expressed as cell numbers). For the qRT-PCR/TaqMan assay, total RNA is extracted from the replicon cells using RNeasy 96 kit (Qiagen) according to the manufacturer's protocol. Real-time RTPCR/TaqMan assays are performed to measure copy numbers of the replicon RNA and cellular ribosomal RNA. Where applicable EC50 (concentration inhibiting HCV replicon by 50%), EC90 (concentration inhibiting HCV replicon by 90%), CC50 (concentration decreasing cell viability by 50%), CC90 (concentration decreasing cell viability by 90%) and SI (selectivity indices: CC50/EC50 and CC90/EC90) values are derived.

SMILES: CCCCOc1ccc(CC(=O)NO)cc1 [Bufexamac]
- CC50 at 72 h [1]: > 100 µM
- EC50 ([2]; Hepatitis C virus, Huh7.5, 72 h, read-out: EC50 (concentration inhibiting HCVcc infectivity by 50%)): 10.2 µM
- Selectivity index (CC50/EC50) ([2]; In vitro HCV cc assay): 9.80
- anti-hepatitis C activity (in words) ([2]; hepatitis C viral infectivity assay): significant anti-hepatitis C activity
- CC50 at 72 h [3]: 100 µM
- anti-hepatitis C activity (in words) (HCV GT1B Replicon; HCV replicon assay): significant anti-hepatitis C activity
- EC50 (HCV GT1B Replicon; Hepatitis C virus, GT1B, 72 h, read-out: EC50 (concentration inhibiting HCV replicon by 50%)): 11.3 µM
- Selectivity index (CC50/EC50) (HCV GT1B Replicon; In vitro HCV replicon assay): >8.85
